Assay results taken from patent US20160310454A1, “LIVER X RECEPTOR AGONISTS IN THE TREATMENT OF EMPHYSEMA” (priority 2013, published 2016).
Where a name gives a salt, the structure may show the parent alone.

Experiments:
alveolar macrophages = details: in vitro; cited from earlier work
[1] = tested on: mouse macrophages (bone marrow derived, ABCA1 fl/fl WT) treated with 5% CSE; test: Mouse macrophages treated with 5% CSE with or without LXR agonist (RT-PCR, Western blot, zymography); type: cell-based; details: bone marrow derived macrophages, 5% CSE, LXR agonist 10 μM
Experimental: To prepare cigarette (CSE), the smoke from one cigarette (1.1 mg of nicotine, 15 mg of tar) was passed through 25 mls of phosphate buffered saline (PBS) (Mercer et al., 2004). The pH of the extracted solution was adjusted to 7.4 and then filtered (Mercer et al., 2004). CSE was added to the media at concentrations up to 5% (vol/vol) (Mercer et al., 2004).
In these experiments both mouse peritoneal and mouse bone marrow derived macrophages (BMdM) were utilized. Mouse peritoneal macrophages were isolated from peritoneal cavities of 3% thioglycolate injected mice on the 5th day from injection. To compare expression of genes in vitro and in vivo peritoneal macrophages were isolated from mice exposed to room air and cigarette smoke. For in vitro analysis cells were seeded on culture plates for 24 h and then treated with CSE. For in vivo analysis cells were collected from peritoneal cavity and mRNA was directly isolated. Mouse BMdMs were obtained from the following mice: ABCA1 fl/fl in a C57/BL6 background. Briefly, mice were first sacrificed by CO2 asphyxiation followed by cervical dislocation. After sacrificing the mouse the legs were amputated and the excess muscle tissue was removed so as to completely expose the femur and tibia, which were cleaned carefully. These samples were left in sterile PBS for the duration of the procedure. The cavity bones were then flushed with 10 ml of PBS using 26G needle. The obtained cells were then counted (usually 100-150 million cells per mouse) and centrifuged for 5 min at 2600 rpm. Hematopoietic cells can be separated by plastic adhesion; therefore the cells were incubated in petri dishes containing DMEM culture media and supplemented with 10% FBS and 1% antibiotics). Non-adherent progenitor cells were then collected after 2 hours of incubation in culture media and then seeded at a concentration of 4 million cells/ml in fresh culture media, supplemented with L-cell conditioned media containing macrophage colony stimulating factor (M-CSF) at a concentration of 20%. Approximately after 7-10 days of plating the cells become fully differentiated into macrophages and were ready for subsequent experiments. After treatment the culture supernatants, proteins, and total RNA were collected for analysis. […]
Total RNA was extracted from specimens of lung tissue 0.3 cm^3 in size with the use of the RNeasy kit (Qiagen, Germantown, Md.) (Goldklang et al., 2012). The RNA was then further processed to obtain cDNA, which was used for Real Time (RT) PCR analysis. TaqMan gene expression assays (Applied Biosystems, Carlsbad, Calif.) were performed to assess gene-transcript levels with the use of an ABI Prism 7900HT Sequence Detection System (Applera, Foster City, Calif.) (Goldklang et al., 2012). The following primers were used to check the respective gene expression: ABCA1 (Hs01059118_m1), ABCG1 (Hs00245154_m1), MMP-9 (Mm00442991_m1), IL-1β (Mm00434227_g1), TNF-α (Mm00443260_g1) and GAPDH (4352932E) from TaqMan Gene Expression Assays, Applied Biosystems, CA. β-actin was used as a control since it is a housekeeping gene.
The lungs of mice (-10 mg) were homogenized in 1 ml of Radioimmunoprecipitation assay (RIPA) buffer, and centrifuged at 14,000 g for 10 min. The protein concentration of each sample was measured using a Bradford reagent. The required amount of each sample was then used for western blot analysis, so that the concentration was equal for all samples. Proteins were first separated on the basis of molecular weight via sodium dodecyl sulphate polyacrylamide gel electrophoresis (SDS-PAGE). The same gel was then transferred onto a nitro cellulose membrane with the help of electric current (or electroblotting) that transfers the protein from polyacrylamide gel to the membrane. This membrane was then incubated in the solution containing primary antibodies, specific for the proteins of interest, ABCA1 and ABCG1, followed by the use of a secondary antibody that allowed the detection of protein by chemiluminescent. […]

[2] = tested on: murine disease models of atherosclerosis; details: mouse, in vivo; cited from earlier work

SMILES: O=C(O)Cc1cccc(OCCCN(Cc2cccc(C(F)(F)F)c2Cl)CC(c2ccccc2)c2ccccc2)c1 [GW3965, 3-[3-[N-(2-Chloro-3-trifluoromethylbenzyl)-(2,2-diphenylethyl)amino]propyloxy]phenylacetic acid hydrochloride]
- CXC10, CCL5, and IL-10 production (alveolar macrophages): anti-inflammatory effects
- production of TNFα, IL-1β, or CXCL8 (alveolar macrophages): did not significantly suppress
- MMP9 expression (mRNA) after smoke exposure [1]: able to block
- cholesterol level in serum and liver [2]: lowers
- development of atherosclerosis [2]: inhibits

SMILES: CON(C)C(=O)CC[C@@H](C)[C@H]1CC[C@H]2[C@@H]3C[C@H](O)[C@@H]4C[C@H](O)CC[C@]4(C)[C@H]3CC[C@]12C [hypocholamide]
- cholesterol level in serum and liver [2]: lowers
- development of atherosclerosis [2]: inhibits
